Measured values as given in patent publication US7396837B2, “Antitumoral analogs of lamellarins” (Pharma Mar, S.A.U., priority 2002, dated 2008).

Experiments:
Type in all cases: cell-based
K-562 = assay: SRB colorimetric cell growth inhibition assay, K-562; conditions: Homo sapiens, K562, K-562
Excerpt: (§1) The finality of these assays is to interrupt the growth of an “in vitro” tumor cell culture by means a continued exhibition of the cells to the sample to be testing.
(§2) A colorimetric type of assay, using sulforhodamine B (SRB) reaction has been adapted for a quantitative measurement of cell growth and viability (following the technique described by P. A. Skehan, et al., J. Natl. Cancer Inst. 1990, 82, 1107-1112).
(§3) This form of assay employs 96 well cell culture microplates of 9 mm diameter (T. Mosmann et al., J. of Immunological Methods 1983, 65, 55-63; G. T. Faircloth et al., J. of Tissue and Culture Methods 1988, 11, 201-205).
(§4) Most of the cell lines are obtained from American Type Culture Collection (ATCC) derived from different human cancer types.
(§5) The values for mean +/− SD of data from triplicate wells are calculated. Some parameters for cellular responses can be calculated: GI=growth inhibition, TGI=total growth inhibition (cytostatic effect) and LC=cell killing (cytotoxic effect).

A-549 = assay: SRB colorimetric cell growth inhibition assay, A-549; conditions: Homo sapiens, A549, A-549
Outline: (§6)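 Human tumour cells continuously exposed to compound in 96-well culture; growth and viability quantified colorimetrically by sulforhodamine B staining. Mean ± SD from triplicate wells; GI (growth inhibition), TGI (total growth inhibition, cytostatic) and LC (cell killing, cytotoxic) parameters derived.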

SK-MEL-28 = assay: SRB colorimetric cell growth inhibition assay, SK-MEL-28; conditions: Homo sapiens, SK-MEL-28, MEL-28
Outline: as §6

HT-29 = assay: SRB colorimetric cell growth inhibition assay, HT-29; conditions: Homo sapiens, HT-29, HT-29
Outline: as §6

LoVo = assay: SRB colorimetric cell growth inhibition assay, LoVo; conditions: Homo sapiens, LoVo
Outline: as §6

LoVo-Dox = assay: SRB colorimetric cell growth inhibition assay, LoVo-Dox (MDR); conditions: Homo sapiens, LOVO-DOX
Outline: as §6

DU-145 = assay: SRB colorimetric cell growth inhibition assay, DU-145; conditions: Homo sapiens, DU-145, DU-145
Outline: as §6

LNCaP = assay: SRB colorimetric cell growth inhibition assay, LNCaP; conditions: Homo sapiens, LNCaP, LN-caP
Excerpt: as §1, §2, §3, §4, §5

SK-BR-3 = assay: SRB colorimetric cell growth inhibition assay, SK-BR-3; conditions: Homo sapiens, SK-BR-3, SK-BR-3
Outline: as §6

IGROV = assay: SRB colorimetric cell growth inhibition assay, IGROV; conditions: Homo sapiens, IGROV
Outline: as §6

IGROV-ET = assay: SRB colorimetric cell growth inhibition assay, IGROV-ET (ET-743 resistant); conditions: Homo sapiens, IGROV-ET
Outline: as §6

HeLa = assay: SRB colorimetric cell growth inhibition assay, HeLa; conditions: Homo sapiens, HeLa
Outline: as §6

HeLa-APL = assay: SRB colorimetric cell growth inhibition assay, HeLa-APL (aplidine resistant); conditions: Homo sapiens, HELA-APL
Outline: as §6

PANC-1 = assay: SRB colorimetric cell growth inhibition assay, PANC-1; conditions: Homo sapiens, PANC-1, PANC-1
Outline: as §6

COc1cc(-c2c3c4cc(OC)c(OC(=O)CCc5ccccc5)cc4oc(=O)c3n3ccc4cc(OC(=O)CCc5ccccc5)c(OC)cc4c23)ccc1OC(=O)CCc1ccccc1 [Compound 8]
GI50 (K-562; GI=growth inhibition, read-out: GI50 K-562): 0.225 µM
CC50 (K-562; cell killing (cytotoxic effect), read-out: LC50 K-562): 7.49 µM
IC (TGI) (K-562; total growth inhibition (cytostatic effect), read-out: TGI K-562): 1.57 µM
GI50 (A-549; GI=growth inhibition, read-out: GI50 A-549): 0.744 µM
CC50 (A-549; cell killing (cytotoxic effect), read-out: LC50 A-549): 11.2 µM
IC (TGI) (A-549; total growth inhibition (cytostatic effect), read-out: TGI A-549): 6.34 µM
GI50 (SK-MEL-28; GI=growth inhibition, read-out: GI50 MEL-28): 0.407 µM
CC50 (SK-MEL-28; cell killing (cytotoxic effect), read-out: LC50 MEL-28): 11.2 µM
IC (TGI) (SK-MEL-28; total growth inhibition (cytostatic effect), read-out: TGI MEL-28): 2.2 µM
GI50 (HT-29; GI=growth inhibition, read-out: GI50 HT-29): 0.377 µM
CC50 (HT-29; cell killing (cytotoxic effect), read-out: LC50 HT-29): 11.2 µM
IC (TGI) (HT-29; total growth inhibition (cytostatic effect), read-out: TGI HT-29): 11.2 µM
GI50 (LoVo; GI=growth inhibition, read-out: GI50 LOVO): 1.48 µM
CC50 (LoVo; cell killing (cytotoxic effect), read-out: LC50 LOVO): 11.2 µM
IC (TGI) (LoVo; total growth inhibition (cytostatic effect), read-out: TGI LOVO): 4.68 µM
GI50 (LoVo-Dox; GI=growth inhibition, read-out: GI50 LOVO-DOX): 8.34 µM
CC50 (LoVo-Dox; cell killing (cytotoxic effect), read-out: LC50 LOVO-DOX): 11.2 µM
IC (TGI) (LoVo-Dox; total growth inhibition (cytostatic effect), read-out: TGI LOVO-DOX): 11.2 µM
GI50 (DU-145; GI=growth inhibition, read-out: GI50 DU-145): 0.703 µM
CC50 (DU-145; cell killing (cytotoxic effect), read-out: LC50 DU-145): 9.43 µM
IC (TGI) (DU-145; total growth inhibition (cytostatic effect), read-out: TGI DU-145): 2.6 µM
GI50 (LNCaP; GI=growth inhibition, read-out: GI50 LN-caP): 0.654 µM
CC50 (LNCaP; cell killing (cytotoxic effect), read-out: LC50 LN-caP): 7.21 µM
IC (TGI) (LNCaP; total growth inhibition (cytostatic effect), read-out: TGI LN-caP): 2.47 µM
GI50 (SK-BR-3; GI=growth inhibition, read-out: GI50 SK-BR-3): 0.915 µM
CC50 (SK-BR-3; cell killing (cytotoxic effect), read-out: LC50 SK-BR-3): 9.19 µM
IC (TGI) (SK-BR-3; total growth inhibition (cytostatic effect), read-out: TGI SK-BR-3): 3.04 µM
GI50 (IGROV; GI=growth inhibition, read-out: GI50 IGROV): 0.445 µM
CC50 (IGROV; cell killing (cytotoxic effect), read-out: LC50 IGROV): 11.2 µM
IC (TGI) (IGROV; total growth inhibition (cytostatic effect), read-out: TGI IGROV): 2.17 µM
GI50 (IGROV-ET; GI=growth inhibition, read-out: GI50 IGROV-ET): 3.35 µM
CC50 (IGROV-ET; cell killing (cytotoxic effect), read-out: LC50 IGROV-ET): 11.2 µM
IC (TGI) (IGROV-ET; total growth inhibition (cytostatic effect), read-out: TGI IGROV-ET): 11.2 µM
GI50 (HeLa; GI=growth inhibition, read-out: GI50 HELA): 0.276 µM
CC50 (HeLa; cell killing (cytotoxic effect), read-out: LC50 HELA): 7.92 µM
IC (TGI) (HeLa; total growth inhibition (cytostatic effect), read-out: TGI HELA): 1.41 µM
GI50 (HeLa-APL; GI=growth inhibition, read-out: GI50 HELA-APL): 7.3 µM
CC50 (HeLa-APL; cell killing (cytotoxic effect), read-out: LC50 HELA-APL): 11.2 µM
IC (TGI) (HeLa-APL; total growth inhibition (cytostatic effect), read-out: TGI HELA-APL): 11.2 µM
GI50 (PANC-1; GI=growth inhibition, read-out: GI50 PANC-1): 0.231 µM
CC50 (PANC-1; cell killing (cytotoxic effect), read-out: LC50 PANC-1): 11.2 µM
IC (TGI) (PANC-1; total growth inhibition (cytostatic effect), read-out: TGI PANC-1): 0.865 µM
